Test [1] concerns second order arterioles of the hamster cheek pouch microcirculation. In words: Hamster cheek pouch microcirculation, arteriolar diameter during suffusion. It is filed as in vivo. The settings on record: native VIP alone, suffusion. As for the experimental part: According to this example, the vasorelaxant effects of VIP in a SSM were determined according to the following method. Specifically, adult male golden Syrian hamsters were purchased from Sasco (Omaha, Nebr.). Adult male hamsters with spontaneous hypertension and their normotensive controls were purchased from the Canadian Hybrid Farms (Halls Harbour, NS, Canada). Hypertensive animals have been identified after cross-breeding of hamsters with hereditary cardiomyopathy and normal golden Syrian hamsters. These albino animals have previously been used in our laboratory (Rubinstein et al., Biochem. Biophys. Res. Commun. 183:1117-1123 (1992); Artwohl et al., FASEB J. 10:A629 (1996)). Animals were anesthetized with pentobarbital sodium (6 mg/100 g body weight, i.p.). A tracheotomy was performed to facilitate spontaneous breathing. A femoral vein was cannulated to inject supplemental anesthesia during the experiment (2-4 mg/100 g body weight/h). Body temperature was maintained constant (37-38° C.) and monitored via heating pad and a feed back controller throughout the experiment.
The bioactivity of the VIP in SSM by diffusing it in situ was determined by visualization of the microcirculation of the hamster cheek pouch. The microcirculation of the cheek pouch was visualized locally by a method previously developed in our laboratory (Suzuki et al., Life Sci. 57:1451-1457 (1995); Suzuki et al., Am. J. Physiol. 271:R393-R397 (1996); and Suzuki et al., Am. J. Physiol. 271:H282-H287 (1996)). Briefly, the left cheek pouch was spread over a small plastic baseplate, and an incision was made in the outer skin to expose the cheek pouch membrane. The connective avascular tissue layer was removed, and a plastic chamber was placed over the baseplate and secured in place by suturing the skin around the upper chamber. This forms a triple-layered complex: the baseplate, the exposed cheek pouch membrane, and the upper chamber. After these initial procedures, the hamster is transferred to a heated microscope stage. The chamber was connected to a reservoir containing warmed bicarbonate buffer (37-38° C.) that allowed continuous suffusion of the cheek pouch. The buffer was bubbled continuously with 95% N2-5% CO2 (pH 7.4). […]
The cheek pouch microcirculation was epi-illuminated with a 100-W mercury light source and viewed through a microscope (Nikon, Tokyo, Japan) at a magnification of ×40. […] The inner-wall diameter of second order arterioles ([…]), which modulated vascular resistance in the cheek pouch, (Raud, Acta Physiol. Scand. (Suppl.) 578:1-58 (1989); Suzuki et al., Life Sci. 57:1451-1457 (1995); Suzuki et al., Am. J. Physiol. 271:R393-R397 (1996)) was measured from the video display of the microscope image using a videomicrometer (VIA 100; Boeckeler Instruments, Tucson, Ariz.). […]

In test [2] the test system is mice with collagen-induced arthritis (CIA). In words: Collagen induced arthritis (CIA) in mice. The settings on record: for hind paw thickness (PT) increase: tail vein. The test is classed as in vivo. As for the experimental part: SSM were prepared as described above in previous examples and by Onyuksel et al. (1999). VIP (1.0 nmol) was incubated with SSM for 2 h at 25° C. Size of VIP-SSM was determined by dynamic light-scattering. The effects of dilution on VIP-SSM were determined by size exclusion chromatography (SEC). Effects of VIP-SSM (1.0 nmol) and VIP in buffer (1.0 nmol and 5.0 nmol) were evaluated in mice with CIA treated on day 22 or 34 post-CIA induction. Clinical arthritis score (CAS) and hind paw thickness (PT) were recorded until day 45 post induction.
VIP, VIP-SSM (each, 0.5, 1.0 & 5.0 nmol), empty micelles, and buffer were injected into the tail vein on day 22 or day 34 post-CIA induction. Clinical arthritis score (CAS) and hind paw thickness (PT) were recorded until day 45 post-CIA induction. Systemic arterial pressure (SAP) was recorded by tail cuff in restrained mice. […] CAS reductions were similar to PT after treatment with α-helix VIP- and aqueous VIP-treated mice.

For another test, the system named is man. The settings on record: infusion in man for 10 hours; cited from earlier work.

vasoactive intestinal peptide [VIP]: in test [1], the “effects on the arteriolar diameter” value is given as “no significant effects”. The “hind paw thickness (PT) increase” value in test [2] (0.5 nmol dose) came out at 85.63±6.20%; in test [2] (1.0 nmol dose), 78.66±6.44%; in test [2] (5.0 nmol dose) it was 46.69±6.92%. For the same substance, the “progression of CIA (PT and CAS data)” value is 78.09% in test [2] (1.0 nmol, treated on day 22); 96.55% in test [2] (1.0 nmol, treated on day 34); 56.37% in test [2] (5.0 nmol, treated on day 22); 69.71% in test [2] (5.0 nmol, treated on day 34). Moreover, the “increase of forearm blood flow” value in the test on man is 270%. Moreover, the “reduction of total peripheral resistance” value in the test with man is recorded as 30%.

The values are drawn from patent US20110142884A1, “Materials and Methods for Making Improved Micelle Compositions” (The Board of Trustees of the University of Illinois, priority 2002, published 2011).
